Source: patent publication US9095565B2, “Methods for treating blood disorders” (Phoenicia Biosciences, Inc., priority 2006, dated 2015)

What was measured:
myeloid colonies = test: Experiment 3: myeloid colonies in cord blood cultured without added growth factors; assay type: cell-based, human; conditions: no added growth factors
Procedure: (§1) Erythroid burst-forming units (BFU-E) (erythroid progenitors) and colony-forming units granulocyte-macrophage (CFU-GM) (myeloid colonies) were cultured in semi-solid or in two-phase suspension media, with or without hematopoietic growth factors at high levels (e.g., erythropoietin at 3 U/ml) or reduced levels (BFU-E cell proliferation was evaluated by enumeration in colonies developing in the presence of reduced amounts of erythropoietin (0.5 U/ml) rather than 3 U (or 3000 mU)/ml, which is standard for these experimental systems), from cord blood or the peripheral blood of several types of humans. Experiments were carried out on samples derived from 1) β-thalassemia patients who expressed variable levels of fetal globin at baseline (and in untreated control cultures) and represent a variety of potential individual responses, 2) from normal umbilical cord blood samples, which express 40-50% fetal globin at baseline (and in untreated control cultures), 3) from CD34+ cells isolated from normal adult peripheral blood, which expressed low levels of fetal globin in untreated control cultures and at baseline; and 4) from peripheral blood of patients with sickle cell disease who were receiving treatment with hydroxyurea. These biological samples provide a range of potential difficulty in stimulating fetal globin expression in human patients.
Control colonies were established in cultures with no added growth factors to support myelopoiesis, in Iscove's Modified Dulbecco's Media (IMDM) methylcellulose media with charcoal-absorbed fetal bovine serum, beta mercaptoethanol, BSA.

γ-globin gene = test: Related study: relative in vitro γ-globin gene induction; assay type: cell-based
Procedure: (§2) In a related study, the relative luciferase reporter gene induction, γ-globin gene induction, and F cell production was tested for several of the candidate compounds. The relative in vitro γ-globin gene reporter stimulation for the tested compounds was as follows: compound P>M>W=R=Y. The relative in vitro γ-globin gene induction for the tested compounds was as follows: P>R=M>Y>W>. The relative in vitro F-cell production was as follows: W>Y>R>M>P. The relative potency for F-cell production was as follows: R>M>Y>P>W.

BFU-E = BFU-E cultured from cord blood; assay type: cell-based, human
Procedure: as §1
In a related study, BFU-E cultured from cord blood, was tested with or without compound M, P, R, T, W, Y, Z, AI, F, or 3-(5-chlorothien-3-yl)acrylic acid.

F-cell = test: Related study: in vitro F cell production; assay type: cell-based
Procedure: as §2

[1] = test system: Erythroid colonies (BFU-E); test: Experiment 2: erythroid colonies (BFU-E) cultured from patients with beta thalassemia; assay type: cell-based, human; conditions: optimal panel of growth factors
Procedure: as §1
Erythroid colonies were cultured from patients with beta thalassemia, either without any test compounds (Control), only an optimal panel of hematopoietic growth factors, or with one of the test compounds M, P, T, 2-methyl-1-benzofuran-4-carboxylic acid, V, W, X, Y, AK, AC, or AI. […] Colony numbers were increased above the control cultures (% BFU-E/Control) by anywhere from 25% to 230%. Each of the listed test compounds was tested in at least 5 different patients' blood and the differences were statistically significant.

fetal globin mRNA = test: Fetal globin induction in phlebotomized anemic baboons; assay type: in vivo, baboon; conditions: Baboon 5002, 5 mg/kg/dose
Procedure: Juvenile baboons were catheterized with venous and arterial catheters, and were phlebotomized a set amount of blood daily to maintain anemia with a hemoglobin level of 7.0-7.5 g/dl, from a baseline normal hemoglobin level of (12-13 g/dl). Normal saline was infused to replace the amount of blood withdrawn. This degree of phlebotomy exchanges the blood volume every 10-20 days.
Fetal globin mRNA was analyzed at baseline anemia before and following administration of test compounds. Globin chain protein synthesis confirmed the mRNA findings.
Following establishment of the stable level of anemia, a test compound was administered once/day, either intravenously or orally, and blood was withdrawn through the arterial catheter for analysis of globin mRNA or for analysis of the test compound in the plasma by HPLC-MS. Pharmacokinetic profiles were established from the plasma levels and oral bioavailability (comparing area under the curve between IV and oral plasma levels) was determined for the test compounds.
In anemic Baboon 5002, baseline fetal globin mRNA, assayed by RNAse protection, was 26% of non-alpha globin. With treatment with compound Y at 5 mg/kg/dose, fetal globin mRNA increased to 48% of non-alpha globin, an 85% increase over the baseline level. Treatment with compound AK at 50 mg/kg induced a 51% fetal globin mRNA increase, a 96% increase over the baseline level. […] The human equivalent dose is 20% of these doses, or 1 mg/kg, 10 mg/kg, or 8 mg/kg respectively. Thus, these 3 compounds are highly suitable for pharmaceutical compositions at doses that human patients can readily tolerate.

[2] = test system: cells expressing fetal globin (F-cells); test: Experiment 1: proportion of F-cells in hematopoietic colonies by FACScan; assay type: cell-based, human; conditions: same low concentrations as for fetal globin mRNA induction
Procedure: as §1
Hematopoietic colonies were enumerated with or without (+/−) the test compounds, and compared to colonies which developed in the presence of hematopoietic growth factors alone from the same subject (untreated control colonies), and proportions of cells expressing fetal globin (F-cells) were analyzed by FACScan analysis.

[3] = Pharmacokinetic profiles in anemic juvenile baboons (plasma levels by HPLC-MS); assay type: in vivo; conditions: 10 mg/kg oral, baboon
Procedure: Juvenile baboons were catheterized with venous and arterial catheters, and were phlebotomized a set amount of blood daily to maintain anemia with a hemoglobin level of 7.0-7.5 g/dl, from a baseline normal hemoglobin level of (12-13 g/dl). Normal saline was infused to replace the amount of blood withdrawn. This degree of phlebotomy exchanges the blood volume every 10-20 days. Following establishment of the stable level of anemia, a test compound was administered once/day, either intravenously or orally, and blood was withdrawn through the arterial catheter for analysis of globin mRNA or for analysis of the test compound in the plasma by HPLC-MS. Pharmacokinetic profiles were established from the plasma levels and oral bioavailability (comparing area under the curve between IV and oral plasma levels) was determined for the test compounds.

γ-globin gene reporter = test: Related study: relative luciferase reporter gene induction; assay type: cell-based
Procedure: as §2

γ-globin mRNA = γ-globin mRNA by RT-PCR in erythroid colonies cultured from cord blood; assay type: cell-based, human; conditions: for Concentration required: increase in fetal globin mRNA, erythroid colonies from cord blood; for No. of Positive responses: positive cultures/cultures tested
Procedure: γ-globin mRNA was analyzed in control and treated erythroid colonies cultured from cord blood, by RT-PCR.

γ globin promoter = test: β/γ-globin promoter driven reporter gene assay; assay type: cell-based; conditions: Table 2
[4] = test system: mice transgenic for the micro-LCR-201 gamma-globin gene promoter; test: γ-globin induction and hematocrit in transgenic mice; assay type: in vivo, mouse; conditions: IP once/day, 5 days/week, 2 weeks
Procedure: Transgenic mice containing the human fetal globin gene and a micro-Locus Control Region (LCR) received no treatment (controls) or were treated with test compounds and γ-globin mRNA was analyzed by RT-PCR. Compound W was administered to mice transgenic for the micro-LCR-201 gamma-globin gene promoter, by IP injection once/day for 5 days/week for 2 weeks, and gamma-globin mRNA was assayed by qPCR. Hematocrit was analyzed once per week. A significant difference in expression of human fetal globin mRNA and in hematocrit between Control and compound W-treated mice was found in initial experiments as summarized in Table 4 below.

[5] = test system: erythroid (red blood cell) colonies; test: Experiment 5: growth of erythroid colonies from cord blood with standard growth factors (EPO and Il-3); assay type: cell-based, human
Procedure: In an additional study, comparative growth of erythroid (red blood cell) colonies cultured from cord blood samples was evaluated with the addition of growth factors alone or with the addition of test compounds.
Control and test cultures were established from the same samples with the same growth factors (EPO and II-3) with addition of test compounds. The compounds tested were M, P, R, T, W, Y, Z, AI, F and 3-(5-chlorothien-3-yl)acrylic acid. Two compounds previously shown as positive proliferative agents were included for comparison.

γ-globin = conditions: cited from earlier work
Erythroid colonies = test: Experiment 6: erythroid colony growth from sickle cell patients receiving hydroxyurea; assay type: cell-based, human
Procedure: Erythroid colonies from the peripheral blood of 4 patients with sickle cell disease who were receiving treatment with Hydroxyurea (HU), a chemotherapeutic agent which suppresses marrow growth and reduces red blood cell production, were cultured alone or with added test compounds M, P, 2-methyl-1-benzofuran-4-carboxylic acid, V, W, Y (racemic mixture) or AI. L-arginine was added as a neutral control, and had no effect on numbers of erythroid colonies.
2-methyl-1-benzofuran-4-carboxylic acid and compound V require additional samples for statistical evaluation, but had positive effects in 3/3 different patients' cultures. These findings indicate that the test compounds stimulate erythroid cell production particularly in conditions of anemia and bone marrow suppression.

COc1cc(OC)nc(SC(C(=O)O)C(C)C)n1 (racemic) [Compound Y]
production of myeloid colonies compared to untreated control (myeloid colonies): stimulated production of myeloid colonies
relative in vitro γ-globin gene induction (rank order) (γ-globin gene): P>R=M>Y>W
numbers of BFU-E colonies compared to controls (BFU-E): increased numbers of colonies
relative in vitro F-cell production (rank order) (F-cell): W>Y>R>M>P
relative potency for F-cell production (rank order) (F-cell): R>M>Y>P>W
number of erythroid colonies compared to matched control cultures [1]: increased the number of colonies
increase over the baseline level of fetal globin mRNA (fetal globin mRNA): 85%
fetal globin mRNA (% of non-alpha globin) (fetal globin mRNA; baseline 26%, RNAse protection): 48%
proportion of F-cells above the percentage in untreated controls [2]: significant increases
initial burst level [3]: does not produce an undesirable high initial burst level
persistence in plasma [3]: greater than 24 hours
relative in vitro γ-globin gene reporter stimulation (rank order) (γ-globin gene reporter): P>M>W=R=Y
Concentration required (γ-globin mRNA): 5 µM
No. of Positive responses (γ-globin mRNA): 1/3
% γ globin promoter induction (above untreated control) (γ globin promoter): ** (‘**’ indicates a 100%-200% increase)

O=C(O)c1cccc(Cn2cc([N+](=O)[O-])cn2)c1 [Compound W]
production of myeloid colonies compared to untreated control (myeloid colonies): stimulated production of myeloid colonies
relative in vitro γ-globin gene induction (rank order) (γ-globin gene): P>R=M>Y>W
Hematocrit ([4]; untreated 51 +/− 0.45): 57 +/− 3
γ-globin mRNA/S16 (mean relative units) ([4]; untreated 1508): 3418 mean relative units
numbers of BFU-E colonies compared to controls (BFU-E): increased numbers of colonies
relative in vitro F-cell production (rank order) (F-cell): W>Y>R>M>P
relative potency for F-cell production (rank order) (F-cell): R>M>Y>P>W
number of erythroid colonies compared to matched control cultures [1]: increased the number of colonies
proportion of F-cells above the percentage in untreated controls [2]: significant increases
relative in vitro γ-globin gene reporter stimulation (rank order) (γ-globin gene reporter): P>M>W=R=Y
Concentration required (γ-globin mRNA): 40 µM
No. of Positive responses (γ-globin mRNA): 5/6
% γ globin promoter induction (above untreated control) (γ globin promoter): ** (‘**’ indicates a 100%-200% increase)

arginine butyrate
erythroid colony numbers [5]: reduced colony numbers
levels required in vitro (γ-globin): 100 µM
effect on numbers of erythroid colonies compared to control (Erythroid colonies): decreased numbers of erythroid colonies
% Change from Control (erythroid colony growth) (Erythroid colonies; micromolar: L-arginine 150, AB 100, PA 100, M 1, P 100, 2-methyl-1-benzofuran-4-carboxylic acid 10, V 10, W 40, Y racemic mix 50, Al 30, Hydroxyurea 20): −29%
Number with effects/No effect (Erythroid colonies; patients' cultures, same concentrations as % Change): 5/6
